For eleven compounds, IC50 and Kd results are on record in patent publication US6855705B1, “11-O-methylgeldanamycin compounds” (Kosan Biosciences, Inc., priority 2003, dated 2005).

What is called IC50 is the concentration that gives 50% inhibition. One may read the Kd as the free concentration of one partner at which half of the binding sites on the other are occupied at equilibrium, for simple one-to-one binding.

In test [1] the test system is SKBr3 cells. As to the kind of experiment: Cytotoxicity against SKBr3 cells (CellTiter-Glo, 72 h). To be noted: Homo sapiens, SK-BR-3, 72 h, read-out: Cytotoxicity against SKBr3 Cells (IC50, nM). (In ATP-based viability assays light output follows the ATP content of the culture.)
Protocol: Cytotoxicity was determined with SKBr3 cells (ATCC HTB-30), a breast cancer cell line. […] Cells were plated into 96-well microtiter back plates at 4,000 cells per 50 μL per well, overnight. Serial 10× dilutions of test compound (10 μM to 0.1 μM) in cell culture media were prepared with a Biomek 2000 apparatus, using the protocols of deeper-1000 μL, media and deeper-1000 μL-dilution. 50 μL of each dilution was added to wells containing cells. Each compound or control (medium only) was tested in duplicate. For each assay, the wells contained a final volume of 100 μL (50 μL of cells and 50 μL of compound dilution). After incubating for 72 h, the plates were let stand at room temperature for 30 min. CellTiter-Glo Luminescent Reagent (Promega #G7573) (100 μL) was added to each well. The well contents were mixed for 5 min and the plates were kept at room temperature for another 30 min. Luminescence was recorded using a Wallac VICTOR^2 Multilabel Counter (PerkinElmer) and IC50 values were determined using Kaleidagraph software (Synergy Software).
Test [2] concerns the target Hsp90 (Homo sapiens, UniProt P07900). The test can be described thus: Hsp90 binding (filter binding assay).
Test [3] deals with CCRF-CEM/VBL. As to the kind of experiment: Cytotoxicity, CCRF-CEM/VBL. To be noted: Homo sapiens, read-out: Compound Cytotoxicity (IC50, nM).
Test [4] relates to HL-60/MX2. As to the kind of experiment: Cytotoxicity, HL-60/MX2. As to conditions: Homo sapiens, HL60/MX2, read-out: Compound Cytotoxicity (IC50, nM).
The subject of test [5] is CCRF-CEM. The test can be described thus: Cytotoxicity, CCRF-CEM. To be noted: Homo sapiens, read-out: Compound Cytotoxicity (IC50, nM).
Test [6] has as its system CCRF-CEM/VP-16. As to the kind of experiment: Cytotoxicity, CCRF-CEM/VP-16. To be noted: Homo sapiens, read-out: Compound Cytotoxicity (IC50, nM).
Test [7] relates to CCRF-CEM/taxol. The test can be described thus: Cytotoxicity, CCRF-CEM/taxol. As to conditions: Homo sapiens, read-out: Compound Cytotoxicity (IC50, nM).
The subject of test [8] is A-549. The test can be described thus: Cytotoxicity, A-549. To be noted: Homo sapiens, A549, read-out: Compound Cytotoxicity (IC50, nM).
The subject of test [9] is MCF-7. The test can be described thus: Cytotoxicity, MCF-7. To be noted: Homo sapiens, MCF7, read-out: Compound Cytotoxicity (IC50, nM).
Test [10] deals with SKOV-3. The test can be described thus: Cytotoxicity, SKOV-3. As to conditions: Homo sapiens, SK-OV-3, read-out: Compound Cytotoxicity (IC50, nM).
[11] abbreviates: filter binding assay, read-out: Hsp90 Binding (Kd).

Like-named read-outs stand apart in the source and are kept apart here.

On to `COC1=C2C[C@@H](C)C[C@H](OC)[C@H](O)[C@@H](C)/C=C(\C)[C@H](OC(N)=O)[C@@H](OC)/C=C\C=C(/C)C(=O)NC(=CC1=O)C2=O` [Geldanamycin], for which the IC50 in test [1] amounted to 23 nM.
Regarding `CO[C@H]1[C@@H](OC)C[C@H](C)CC2=C(NCCN(C)C)C(=O)C=C(NC(=O)/C(C)=C/C=C\[C@H](OC)[C@@H](OC(N)=O)/C(C)=C/[C@@H]1C)C2=O` [Compound I-b, 11-O-methyl-17-(2-dimethylaminoethyl)amino-17-demethoxy-geldanamycin], the Kd in test [2] (setting [11]) was 800 nM. For the same compound, the IC50 in [3] is 960 nM; in [4], 62 nM; in test [5], 58 nM; in test [6] it was 65 nM; in [7] it was 390 nM; in [8], 23 nM. Further, the IC50 in test [1] came to 12 nM; in test [9], 50 nM; in test [10] it was 43 nM.
As for `CO[C@H]1[C@@H](OC)C[C@H](C)CC2=C(NCCN3CCCC3)C(=O)C=C(NC(=O)/C(C)=C/C=C\[C@H](OC)[C@@H](OC(N)=O)/C(C)=C/[C@@H]1C)C2=O` [Compound I-j, 11-O-methyl-17-(2-(1-pyrrolidinyl)ethyl)amino-17-demethoxygeldanamycin], the Kd in test [2] (setting [11]) worked out at 960 nM. Also, the IC50 turned out to be 2500 nM in test [3]; 98 nM in test [4]; 160 nM in [5]; 170 nM in test [6]; 520 nM in [7]; 62 nM in test [8]. Besides, the IC50 in test [1] is 160 nM; in test [9] it was 76 nM; in [10] it was 69 nM.
Take `C=CCNC1=C2C[C@@H](C)C[C@H](OC)[C@H](OC)[C@@H](C)/C=C(\C)[C@H](OC(N)=O)[C@@H](OC)/C=C\C=C(/C)C(=O)NC(=CC1=O)C2=O` [Compound I-g, 11-O-methyl-17-allylamino-17-demethoxygeldanamycin]: the Kd in test [2] (setting [11]) was found to be 2800 nM. In addition, the IC50 in test [3] was > 5000 nM; in test [4], 3000 nM; in test [5], 2500 nM; in test [6], 4000 nM; in test [7], 3500 nM; in test [8], 360 nM. Further, the values for the IC50 in [1], in test [9] and in test [10] were 280 nM, 760 nM and 1300 nM, respectively.
For the compound `CO[C@H]1[C@@H](OC)C[C@H](C)CC2=C(N)C(=O)C=C(NC(=O)/C(C)=C/C=C\[C@H](OC)[C@@H](OC(N)=O)/C(C)=C/[C@@H]1C)C2=O` [Compound I-f], the dissociation constant (Kd) in [2] (setting [11]) was 320 nM. For the same compound, the half-inhibitory concentration (IC50) in test [3] worked out at 2500 nM; in test [4], 930 nM; in [5], 250 nM; in test [6], 530 nM; in [7], 850 nM; in test [8], 37 nM. The values for the IC50 in [1], in test [9] and in [10] were 84 nM, 350 nM and 200 nM, respectively.
Compound `CO[C@H]1[C@@H](OC)C[C@H](C)CC2=C(NCCF)C(=O)C=C(NC(=O)/C(C)=C/C=C\[C@H](OC)[C@@H](OC(N)=O)/C(C)=C/[C@@H]1C)C2=O` [Compound I-c, 11-O-methyl-17-(2-fluoroethyl)amino-17-demethoxygeldana-mycin] showed a Kd in [2] of 2300 nM. For the same compound, the IC50 in test [3] amounted to 2500 nM; in [4], 440 nM; in test [5], 960 nM; in [6], 2500 nM; in test [7] it was 2700 nM; in [8], 67 nM. Besides, the IC50 in test [1] was 250 nM; in test [9], 58 nM; in test [10], 460 nM.
As to `CO[C@H]1[C@@H](OC)C[C@H](C)CC2=C(NCCc3c[nH]cn3)C(=O)C=C(NC(=O)/C(C)=C/C=C\[C@H](OC)[C@@H](OC(N)=O)/C(C)=C/[C@@H]1C)C2=O` [Compound I-h, 11-O-methyl-17-(2-(4-imidazolyl)ethyl)amino-17-demethoxy-geldanamycin], in test [2] (setting [11]), the Kd came out at 2000 nM. Moreover, the IC50 was > 5000 nM in [3]; 2500 nM in test [4]; 510 nM in test [5]; 2500 nM in test [6]; 3000 nM in test [7]; 420 nM in test [8]. Besides, the IC50 in test [1] was 60 nM; in test [9], 160 nM; in test [10], 320 nM.
`CO[C@H]1[C@@H](OC)C[C@H](C)CC2=C(NCCN3CC3)C(=O)C=C(NC(=O)/C(C)=C/C=C\[C@H](OC)[C@@H](OC(N)=O)/C(C)=C/[C@@H]1C)C2=O` [Compound I-d, 11-O-methyl-17-(2-(1-aziridinyl)ethyl)amino-17-demethoxygelda-namycin] displayed a Kd in [2] of 2100 nM. Moreover, in test [1], the 50% inhibitory concentration (IC50) stood at 36 nM.
Regarding `COC1=C2C[C@@H](C)C[C@H](OC)[C@H](OC)[C@@H](C)/C=C(\C)[C@H](OC(N)=O)[C@@H](OC)/C=C\C=C(/C)C(=O)NC(=CC1=O)C2=O` [Compound I-e, 11-O-methyl-geldanamycin], the dissociation constant (Kd) in test [2] (setting [11]) is 490 nM. The IC50 in test [1] turned out to be 9.1 nM.
Take `CO[C@H]1[C@@H](OC)C[C@H](C)CC2=C(N3CCC3)C(=O)C=C(NC(=O)/C(C)=C/C=C\[C@H](OC)[C@@H](OC(N)=O)/C(C)=C/[C@@H]1C)C2=O` [Compound I-a, 11-O-methyl-17-(1-azetidinyl)-17-demethoxygeldanamycin]: binding in [2] was characterised by a dissociation constant (Kd) of 4000 nM. The IC50 in [3] came out at 2500 nM; in test [4] it was 600 nM; in test [5], 420 nM; in test [6], 1400 nM; in test [7] it was 2500 nM; in test [8], 29 nM. The results for the IC50 in test [1], in test [9] and in test [10] were 24 nM, 63 nM and 110 nM, respectively.
On to `CO[C@H]1[C@@H](OC)C[C@H](C)CC2=C(NCCN3CCC3)C(=O)C=C(NC(=O)/C(C)=C/C=C\[C@H](OC)[C@@H](OC(N)=O)/C(C)=C/[C@@H]1C)C2=O` [Compound I-i, 11-O-methyl-17-(2-(1-azetidinyl)ethyl)amino 17-demethoxy-geldanamycin], for which the dissociation constant Kd in test [2] (setting [11]) worked out at 960 nM. Besides, the IC50 was 2500 nM in [3]; 110 nM in test [4]; 85 nM in test [5]; 140 nM in test [6]; 510 nM in [7]; 26 nM in test [8]. The IC50 was found to be 130 nM in test [1], 51 nM in test [9] and 65 nM in test [10].
